Tests used:
ZL34 cells [1] = test: MTT cell vitality assay; format: cell-based, human; conditions: normoxia
Protocol: (§1) The MTT assay is based on the reduction in the mitochondria of metabolically active cells by succinate dehydrogenase obtaining a precipitation of purple formazan crystal. The assay was carried out using the same protocol reported by Azzi et al[42]. Briefly, AB22, ZL34 and MCF7 cells were seeded at a density of 7 × 10^3, 5 × 10^3 and 1 × 10^4 cells per well, respectively, in a 96-well microtiter plate. After 24 h at 37 °C and 5% CO2, they were incubated with increasing concentration of CA-SF or AZ for 24 h in a condition of normoxia at 37 °C and 5% CO2 by adding stock solutions in dimethyl sulfoxide (DMSO). In all the conditions the concentration of DMSO during the cell incubation was maintained under 0.25% (v/v) in cell medium. After the incubation, the medium was removed and each well was incubated with thiazolyl blue tetrazolium bromide (Sigma) dissolved in the medium at a concentration of 0.45 mg/mL for 4 h at 37 °C and 5% CO2. Then, after medium elimination, 150 µL of DMSO were added into each well to solubilise the formazan salt crystals produced by the metabolism of live cells and the microplate was incubated at room temperature (RT) for 30 min. Finally, absorbance was measured at 570 nm using an iMark microplate reader (Biorad). Cell vitality was reported as the percentage of […] cells observed in the treated samples relative to that observed in the non-treated control cells.

MCF7 cells [2] = test: MTT cell vitality assay; format: cell-based, human; conditions: normoxia
Protocol: as §1

ZL34 cells [3] = test: Cell uptake of boron (ICP-MS); format: cell-based, human; conditions: ZL34, 187.5 µM CA-SF in culture medium, 24 h, 37 °C
Protocol: (§2) For the in vitro uptake experiments, 6 × 10^5 MCF7, 4.5 × 10^5 ZL34 and 2 × 10^5 AB22 were seeded in 6 cm of diameter dishes. After 24 h for MCF7 and ZL34 and after 72 h for AB22, the cells were incubated for 24 h with increasing concentration of CA-SF. All the incubations were performed in condition of normoxia at 37 °C, 5% CO2. At the end of the incubation, cells were washed three times with 3 ml ice-cold PBS and detached with 0.05% trypsin and 0.02% EDTA. Finally, all cell samples were transferred in falcon tubes and sonicated at 30% of power for 30 s in ice. The boron content of each cell sample lysates was determined by ICP-MS technique (see below). The milligrams of proteins, proportional to the number of cells, of each cell sample lysate, was evaluated by the Bradford assay (Biorad) using bovine serum albumin as a standard.
(§3) Boron content from cell samples, mice organs, plasma and tumours were determined using inductively coupled plasma mass spectrometry (ICP-MS) (Element-2; Thermo-Finnigan, Rodano (MI), Italy).
(§4) Sample digestion was performed using a high performance Microwave Digestion System (ETHOS UP Milestone, Bergamo, Italy) after the addition of concentrated HNO3 (70%) to cell lysates (1:1), in a final volume of 0.4 mL. […] The amounts of boron µg /g tissue were thus calculated considering that 1 g of tissue contains 1 × 10^9 cells.

MCF7 cells [4] = test: Cell uptake of boron (ICP-MS); format: cell-based, human; conditions: MCF7, 72 µM CA-SF in culture medium, 24 h, 37 °C
Protocol: as §2, §3, §4

AB22 cells = test: Proliferation assay of cells surviving irradiation; format: cell-based, mouse; conditions: AB22, 130 µM CA-SF before neutron irradiation
Protocol: 75 flasks of MCF7 (4 flasks), ZL34 (4 flasks) and AB22 (4 flasks) were seeded at a density of 1.8 × 10^6 cells, 1.2 × 10^6 cells and 5.5 × 10^5 cells, respectively. 24 h later for MCF7 and ZL34 and 72 h later for AB22, 2 flasks of each cell lines were incubated for 24 h in the presence of 72 µM, 187.5 µM and 130 µM of CA-SF, respectively. After the incubation, cells were washed with PBS and their medium was renewed. Two flasks of MCF7, ZL34 and AB22 cells incubated with CA-SF and two flasks containing non-treated control cells were irradiated for 15′ at 30 kW reactor power in the thermal column of the TRIGA Mark II reactor at the University of Pavia, Italy. […]
Then, around 7 × 10^5 MCF7, 3.5 × 10^5 ZL34 and 1 × 10^5 AB22 cells from each differently treated flask were seeded in 10 cm diameter culture dishes. […] Then, cells were sonicated for 30 s at 30% power in ice and the total cell protein concentration (that is proportional to the number of cells) from cell lysates was determined by the Bradford method, using bovine serum albumin as a standard. The Cell Growth Rate was calculated as follows: Number of cellsti-Number of cellst0/Number of cellst0×100 for which Number of cells (ti) is the number of cells measured at the various time intervals and the number of cells (t0) is the number of cells at the starting point (t = 0) of the proliferation assay.

1-Sulfonamidomethyl-o-carborane [CA-SF]
cell vitality measured by MTT (ZL34 cells [1]; ZL34, 187.5 µM CA-SF, 24 h, 37 °C): about 80% | percentage of viable cells with increasing concentration (MTT) (ZL34 cells [1]; ZL34, 24 h, Fig. 3): steadily decreases | cell vitality measured by MTT (MCF7 cells [2]; MCF7, 72 µM CA-SF, 24 h, 37 °C): about 80% | percentage of viable cells with increasing concentration (MTT) (MCF7 cells [2]; MCF7, 24 h, Fig. 3): steadily decreases | boron loaded into the target cells (ZL34 cells [3]): 90 µg/g | boron loaded into the target cells (MCF7 cells [4]): 60 µg/g | proliferation rate of cells surviving to irradiation (AB22 cells): marked inhibition of proliferation

— paper PMC7648750, “In vitro and in vivo BNCT investigations using a carborane containing sulfonamide targeting CAIX epitopes on malignant pleural mesothelioma and breast cancer cells” (Scientific Reports, 2020)
